In the assay the test system is HeLa cells. Put plainly: Cytoprotection test to DOX. The assay is classed as cell-based. Conditions: native HeLa cells and SupraCell-MIL-100(Fe); nearly identical dose response curve; 2 hours.

The structures appear in SMILES notation.

Experimental: Then, the anticancer drug doxorubicin (diameter about 1.6 nm) or cytotoxic silver (Ag) nanocrystals (diameter about 5.0 nm) were added into the culture medium at different concentrations.
Cytoprotection test to DOX. The cytoprotection test was performed on Supracell-MIL-100 (Fe). Briefly, the native HeLa cells and Supracell-MIL-100 (Fe) were seeded on 96-well plate at the density of 200,000 cells/mL. Then different concentration of DOX (0.01, 0.1, 1.0, 10, 20, and 50 μg/ML) was added in the cell culture media under cell culture condition. After incubation for 2 hours, the viability of the cells or SupraCells was measured by CellTiter-Glo® 2.0 Assay.

On to `COc1cccc2c1C(=O)c1c(O)c3c(c(O)c1C2=O)C[C@@](O)(C(=O)CO)C[C@@H]3O[C@H]1C[C@H](N)[C@H](O)[C@H](C)O1` [doxorubicin], for which the “sensitivity of cells to the drug (viability)” value is listed as “sensitive”.

The values above are taken from patent publication US12252708B2, “Living mammalian cells modified with functional modular nanoparticles” (UNM Rainforest Innovations, priority 2018, dated 2025).
